Source: BigSolDB 2.1

CCCCc1oc2ccc(NS(C)(=O)=O)cc2c1C(=O)c1ccc(OCCCN(CCCC)CCCC)cc1.Cl
solubility (mole fraction)
Details | in ethanol | in isopropanol | in methanol | in n-butanol | in n-propanol | in water
298.15 K | 0.00418 | 0.000681 | 0.0556 | 0.00177 | 0.00275 | 2.71e-05
303.15 K | 0.00461 | 0.000838 | 0.0592 | 0.00209 | 0.00353 | 2.73e-05
308.15 K | 0.00535 | 0.00106 | 0.061 | 0.00261 | 0.00433 | 3.09e-05
313.15 K | 0.00818 | 0.00119 | 0.077 | 0.00352 | 0.00563 | 3.57e-05
318.15 K | 0.0159 | 0.00185 | 0.0919 | 0.00509 | 0.00892 | 4.49e-05
323.15 K | 0.0362 | 0.00293 | 0.119 | 0.00805 | 0.0159 | 6.11e-05
